The values below come from patent US20230233541A1, “SUBSTITUTED BENZAMIDES AS MODULATORS OF TREX1” (Constellation Pharmaceuticals, Inc., priority 2020, published 2023).

The target of one test is T1, full length human TREX1 (Homo sapiens, UniProt Q9NSU2).
T1 construct: N-terminally His-Tev tagged full length human TREX1; His-Tev (His tag with TEV protease site) (N); made in house; host or cells: E. coli
T1 sequence (Q9NSU2 1-314): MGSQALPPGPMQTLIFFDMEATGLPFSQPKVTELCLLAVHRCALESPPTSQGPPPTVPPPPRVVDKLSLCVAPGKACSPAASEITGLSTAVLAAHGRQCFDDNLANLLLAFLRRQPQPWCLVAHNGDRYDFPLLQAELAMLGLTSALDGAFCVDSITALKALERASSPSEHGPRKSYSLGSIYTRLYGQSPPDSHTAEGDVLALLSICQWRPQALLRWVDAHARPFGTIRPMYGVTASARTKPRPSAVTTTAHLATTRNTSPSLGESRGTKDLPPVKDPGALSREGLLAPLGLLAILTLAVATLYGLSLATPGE
In words: TREX1 Biochemical Assay (fluorescence assay, degradation of dsDNA substrate). As to conditions: 150 pM TREX1, 60 nM dsDNA substrate, 25 minutes at room temperature; read-out: hTREX1 EC50. The protocol:
Degradation of the dsDNA liberates free fluorophore to produce a fluorescent signal. Specifically, 7.5 μL of N-terminally His-Tev tagged full length human TREX1 (expressed in E. coli and purified in house) in reaction buffer (50 mM Tris (pH 7.4), 150 mM NaCl, 2 mM DTT, 0.1 mg/mL BSA, 0.01% (v/v) Tween-20 and 100 mM MgCl2) was added to a 384-well Black ProxiPlate Plus (Perkin Elmer) which already contained compound (150 nL) at varying concentrations as a 10-point dose-response in DMSO. To this was added 7.5 μL of dsDNA substrate (Strand A: 5′ TEX615/GCT AGG CAG 3′; Strand B: 5′ CTG CCT AGC/IAbRQSp (Integrated DNA Technologies)) in reaction buffer. Final concentrations were 150 pM TREX1, 60 nM dsDNA substrate in reaction buffer with 1.0% DMSO (v/v). After 25 minutes at room temperature, reactions were quenched by the addition of 5 μL of stop buffer (same as reaction buffer plus 200 mM EDTA). Final concentrations in the quenched reaction were 112.5 pM TREX1, 45 nM DNA and 50 mM EDTA in a volume of 20 μL. After a 5-minute incubation at room temperature, plates were read in a laser sourced Envision (Perkin-Elmer), measuring fluorescence at 615 nm following excitation w/570 nm light. IC50 values were calculated by comparing the measured fluorescence at 615 nm ratio relative to control wells pre-quenched w/stop buffer (100% inhibition) and no inhibitor (0% inhibition) controls as using non-linear least square four parameter fits and either Genedata or GraphPad Prism (GraphPad Software, Inc.).

The target in test [1] is T2, human TREX2 (residues M44-A279) (Homo sapiens, UniProt Q9BQ50).
T2 construct: human TREX2 (residues M44-A279, expressed in E. coli); His-Tev (His tag with TEV protease site) (N); made in house; host or cells: E. coli
T2 sequence (Q9BQ50 44-279 isoform Q9BQ50-1): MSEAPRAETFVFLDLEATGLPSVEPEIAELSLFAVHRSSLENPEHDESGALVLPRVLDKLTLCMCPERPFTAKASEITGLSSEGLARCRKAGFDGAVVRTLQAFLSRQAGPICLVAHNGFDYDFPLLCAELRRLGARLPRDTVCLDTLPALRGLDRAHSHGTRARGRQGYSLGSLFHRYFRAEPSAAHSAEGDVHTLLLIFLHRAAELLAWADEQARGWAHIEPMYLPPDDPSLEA
In words: TREX2 Biochemical Assay (fluorescence assay, degradation of dsDNA substrate). The settings on record: 2.5 nM TREX2, 60 nM dsDNA substrate, 25 minutes at room temperature; read-out: hTREX2 EC50. The protocol: Degradation of the dsDNA liberates free fluorophore to produce a fluorescent signal. Specifically, 7.5 μL of N-terminally His-Tev tagged human TREX2 (residues M44-A279, expressed in E. coli and purified in house) in reaction buffer (50 mM Tris (pH 7.4), 150 mM NaCl, 2 mM DTT, 0.1 mg/mL BSA, 0.01% (v/v) Tween-20 and 100 mM MgCl2) was added to a 384-well Black ProxiPlate Plus (Perkin Elmer) which already contained compound (150 nL) at varying concentrations as a 10-point dose-response in DMSO. To this was added 7.5 μL of dsDNA substrate (Strand A: 5′ TEX615/GCT AGG CAG 3′; Strand B: 5′ CTG CCT AGC/IAbRQSp (IDT)) in reaction buffer. Final concentrations were 2.5 nM TREX2, 60 nM dsDNA substrate in reaction buffer with 1.0% DMSO (v/v). After 25 minutes at room temperature, reactions were quenched by the addition of 5 μL of stop buffer (same as reaction buffer plus 200 mM EDTA). Final concentrations in the quenched reaction mixture were […] TREX2, 45 nM DNA and 50 mM EDTA in a volume of 20 μL. After a 5-minute incubation at room temperature, plates were read in a laser sourced Envision (Perkin-Elmer), measuring fluorescence at 615 nm following excitation w/570 nm light. IC50 values were calculated by comparing the measured fluorescence at 615 nm ratio relative to control wells pre-quenched w/stop buffer (100% inhibition) and no inhibitor (0% inhibition) controls as using non-linear least square four parameter fits and either Genedata or GraphPad Prism (GraphPad Software, Inc.).

The term EC50 denotes the concentration needed to bring the measured effect to its halfway point. In the case of `C[C@H](c1cccc(Cl)c1Cl)N(Cc1ccc(C(=O)O)nc1)C(=O)c1cc(F)cc(F)c1` [Compound 173], the results for the EC50 (at full length human TREX1; in test [1]) were 0.1 to 1 µM and 10 to 100 µM, respectively.

Take `Cc1cccc(CN(Cc2cccnc2)C(=O)c2cccc(F)c2)c1Cl` [Compound 135]: the results for the EC50 (at full length human TREX1; in test [1]) were 1 to 10 µM and 10 to 100 µM, respectively.

Take `O=C(c1ccc(Oc2ccc(F)cc2)cc1)N(Cc1cccnc1)Cc1ccc(Cl)cc1Cl` [Compound 39]: the results for the EC50 (at full length human TREX1; in test [1]) were above 10 µM and above 100 µM, respectively.

Consider `O=C(c1ccccc1F)N(Cc1cccnc1)Cc1cc(Cl)cc(Cl)c1` [Compound 37], for which the results for the EC50 (at full length human TREX1; in test [1]) were above 10 µM and above 100 µM, respectively.

For the compound `O=C(O)c1ccc(CN(Cc2cccc(Cl)c2Cl)C(=O)c2cccc(F)c2)cn1` [Compound 147], the EC50 was below 0.1 µM at full length human TREX1 and 1 to 10 µM in test [1].

Regarding `O=C(c1cccc(Cl)c1)N(Cc1cccnc1)Cc1ccc(Cl)cc1Cl` [Compound 5], the EC50 on full length human TREX1 was 1 to 10 µM; in test [1], above 100 µM.

Regarding `C[C@@H](c1cccc(Cl)c1Cl)N(Cc1ccc(C(=O)O)nc1)C(=O)c1cc(F)cc(F)c1` [Compound 174], the concentration giving a half-maximal response (EC50) was below 0.1 µM on full length human TREX1 and below 1 µM in test [1].

Turning to `NC(=O)c1ccc(CN(Cc2cccc(Cl)c2Cl)C(=O)c2cccc(F)c2)cn1` [Compound 149], the figures for the EC50 (at full length human TREX1; in test [1]) were above 10 µM and above 100 µM, respectively.

For the compound `O=C(c1ccc(Oc2ccccc2)cc1)N(Cc1cccnc1)Cc1cc(Cl)cc(Cl)c1` [Compound 71], the EC50 at full length human TREX1 was above 10 µM; in test [1], above 100 µM.

As to `N#CCC[C@@H](c1ccccc1Cl)N(Cc1cccnc1)C(=O)c1cc(F)cc(F)c1` [Compound 177], the figures for the EC50 (at full length human TREX1; in test [1]) were 0.1 to 1 µM and 10 to 100 µM, respectively.

On to `Cc1cc(C(=O)N(Cc2cccnc2)Cc2cc(Cl)cc(Cl)c2)cc(C)c1O` [Compound 69], for which the 50% effective concentration (EC50) on full length human TREX1 was above 10 µM; in test [1], above 100 µM.

With `O=C(O)c1ccc(CN(Cc2nccc(Cl)c2Cl)C(=O)c2cc(F)cc(F)c2)cn1` [Compound 203], the EC50 is below 0.1 µM at full length human TREX1 and 1 to 10 µM in test [1].

Regarding `C[C@H](c1ccc(Cl)cc1Cl)N(Cc1cccnc1)C(=O)c1cccc(F)c1` [Compound 155], the figures for the EC50 (on full length human TREX1; in test [1]) were 0.1 to 1 µM and 10 to 100 µM, respectively.

For `O=C(c1cc(Br)c(O)c(Br)c1)N(Cc1cccnc1)Cc1ccc(Cl)cc1Cl` [Compound 40], the EC50 on full length human TREX1 is above 10 µM; in test [1], above 100 µM.

For the compound `COc1cc(Br)cc(C(=O)N(Cc2cccnc2)Cc2cc(Cl)cc(Cl)c2)c1` [Compound 52], the figures for the EC50 (on full length human TREX1; in test [1]) were above 10 µM and above 100 µM, respectively.

For the compound `O=C(c1cc(F)cc(F)c1)N(Cc1ccc(-c2noc(=O)[nH]2)nc1)Cc1cccc(Cl)c1Cl` [Compound 262], the 50% effective concentration (EC50) on full length human TREX1 was in the range of 0.1 to 1 µM; in test [1], 1 to 10 µM.

For `O=C(c1ccc(CO)cc1F)N(Cc1cccnc1)Cc1cc(Cl)cc(Cl)c1` [Compound 60], the EC50 on full length human TREX1 is above 10 µM; in test [1], above 100 µM.

As for `O=C(c1ccc(O)c(Br)c1)N(Cc1cccnc1)Cc1cc(Cl)cc(Cl)c1` [Compound 73], the values for the EC50 (on full length human TREX1; in test [1]) were above 10 µM and above 100 µM, respectively.

Regarding `CC[C@H](c1ccc(Cl)cc1Cl)N(Cc1cccnc1)C(=O)c1cccc(F)c1` (single isomer, unassigned) [Compound 157], the EC50 at full length human TREX1 was in the range of 0.1 to 1 µM; in test [1], 10 to 100 µM.

In the case of `COC(=O)c1ccc(CN(Cc2ccc(Cl)cc2Cl)C(=O)c2cccc(F)c2)cn1` [Compound 141, methyl 5-({N-[(2,4-dichlorophenyl)methyl]-1-(3-fluorophenyl)formamido}methyl)pyridine-2-carboxylate], the EC50 is above 10 µM at full length human TREX1 and above 100 µM in test [1].

On to `O=C(c1ccc(F)c(F)c1F)N(Cc1cccnc1)Cc1ccc(Cl)cc1Cl` [Compound 123], for which the EC50 on full length human TREX1 was 1 to 10 µM; in test [1], above 100 µM.

Take `O=C(c1ncccn1)N(Cc1cccnc1)Cc1ccc(Cl)cc1Cl` [Compound 102]: the values for the EC50 (on full length human TREX1; in test [1]) were above 10 µM and above 100 µM, respectively.

As for `COC(=O)C[C@@H](c1ccc(Cl)cc1Cl)N(Cc1cccnc1)C(=O)c1cc(F)cc(F)c1` [Compound 215], the figures for the EC50 (on full length human TREX1; in test [1]) were 1 to 10 µM and 10 to 100 µM, respectively.

As to `O=C(c1cccc(F)c1)N(Cc1cccnc1)[C@@H](CO)c1ccc(Cl)cc1Cl` (single isomer, unassigned) [Compound 161], the values for the EC50 (at full length human TREX1; in test [1]) were above 10 µM and 10 to 100 µM, respectively.

Regarding `CC(C)[C@H](c1ccc(Cl)cc1Cl)N(Cc1cccnc1)C(=O)c1cccc(F)c1` (single isomer, unassigned) [Compound 159], the EC50 lay in the range of 1 to 10 µM at full length human TREX1 and 10 to 100 µM in test [1].

On to `CC[C@@H](c1cccc(OC)c1Cl)N(Cc1cnc(C(=O)O)c(N)c1)C(=O)c1cc(F)cc(F)c1` [Compound 252], for which the EC50 at full length human TREX1 was below 0.1 µM; in test [1], 10 to 100 µM.

Consider `O=C(c1cc(Cl)ccc1O)N(Cc1cccnc1)Cc1ccc(Cl)cc1Cl` [Compound 20], for which, on full length human TREX1, the EC50 was above 10 µM.

On to `O=C(c1ccc(Cl)cc1Br)N(Cc1cccnc1)Cc1ccc(Cl)cc1Cl` [Compound 14], for which, at full length human TREX1, the EC50 is above 10 µM.

Consider `O=C(c1ccc(Cl)c(Cl)c1)N(Cc1cccnc1)Cc1ccc(Cl)cc1Cl` [Compound 7], for which the EC50 at full length human TREX1 is above 10 µM.

On to `O=C(c1ccc(Br)cc1Cl)N(Cc1cccnc1)Cc1ccc(Cl)cc1Cl` [Compound 18], for which the EC50 on full length human TREX1 was above 10 µM.

As to `COc1cccc(C(=O)N(Cc2cccnc2)Cc2ccc(Cl)cc2Cl)c1` [Compound 13], the concentration giving a half-maximal response (EC50) at full length human TREX1 lay within 1 to 10 µM.

For the compound `Cc1cc(C(=O)N(Cc2cccnc2)Cc2ccc(Cl)cc2Cl)ccc1Br` [Compound 16], on full length human TREX1, the EC50 was above 10 µM.

For the compound `O=C(c1ccc(O)c(F)c1)N(Cc1cccnc1)Cc1ccc(Cl)cc1Cl` [Compound 21], the EC50 at full length human TREX1 was above 10 µM.

Regarding `O=C(c1ccc(O)c(Br)c1)N(Cc1cccnc1)Cc1ccc(Cl)cc1Cl` [Compound 15], the EC50 on full length human TREX1 is above 10 µM.

As to `O=C(c1ccc(O)c(Cl)c1)N(Cc1cccnc1)Cc1ccc(Cl)cc1Cl` [Compound 3], the EC50 on full length human TREX1 was above 10 µM.

In the case of `Cc1ccc(C(=O)N(Cc2cccnc2)Cc2ccc(Cl)cc2Cl)c(Br)c1` [Compound 9], the half-maximal effective concentration (EC50) at full length human TREX1 is above 10 µM.

In the case of `O=C(c1ccccc1F)N(Cc1cccnc1)Cc1ccc(Cl)cc1Cl` [Compound 4], the EC50 on full length human TREX1 was above 10 µM.

Turning to `O=C(c1ccc(Cl)cc1O)N(Cc1cccnc1)Cc1ccc(Cl)cc1Cl` [Compound 17], the EC50 at full length human TREX1 is above 10 µM.

On to `O=C(c1ccc(Cl)cc1)N(Cc1cccnc1)Cc1ccc(Cl)cc1Cl` [Compound 8], for which the EC50 at full length human TREX1 was above 10 µM.
